US10307413B2, “Tetrahydro- and dihydro-isoquinoline PRMT5 inhibitors and uses thereof” (Epizyme, Inc., priority 2013, dated 2019)
Read-outs that look alike come from different tables or passages of the source.

How the values were obtained:
PRMT5/MEP50 = PRMT5/MEP50 (Homo sapiens (Human), UniProt O14744); assay: PRMT5 Biochemical Assay (PRMT5/MEP50 enzyme assay on peptide substrate, 3H-SAM Flashplate)
In short: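 Radiometric methylation of a biotin-tagged H4(1-15) peptide by human PRMT5/MEP50 from baculovirus/Sf9, with ³H-SAM incorporation read on streptavidin Flashplates. Buffer: Bicine pH 7.6, TCEP, BSG, Tween20; compound preincubated 30 min at 25 °C; stopped with 600 µM final unlabeled SAM. DMSO and SAH controls; IC50 from fitted % inhibition.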

[1] = tested on: symmetric di-methyl arginine in Z-138 cells; assay: Z-138 Methylation Assay (In Cell Western for symmetric di-methyl arginine and DNA content); format: cell-based; conditions: Homo sapiens, read-out: ICW EC50
In short: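 In-cell western: symmetric di-methyl arginine signal ratioed to DRAQ5 DNA content after 96 h compound exposure of Z-138 cells seeded at 50,000 cells/mL.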

Z-138 cell line = assay: Z-138 Proliferation Assay (Cell Titer Glo, 5 days); format: cell-based; conditions: Homo sapiens, read-out: Proliferation EC50
In short: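 Viability via CellTiter-Glo luminescence (ATP) after 5-day incubation at 37 °C, 5% CO2. Compounds tested in triplicate, nine 3-fold steps, highest final concentration 20 μM in 0.2% DMSO; 50% inhibitory concentration by 4-parameter fit of normalized curves.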

[2] = 120 h, Z-138 cells, 5 days, Cell Titer Glo

PRMT5/MEP50, sequence (O14744 other isoform, or with tags, fused parts or gaps): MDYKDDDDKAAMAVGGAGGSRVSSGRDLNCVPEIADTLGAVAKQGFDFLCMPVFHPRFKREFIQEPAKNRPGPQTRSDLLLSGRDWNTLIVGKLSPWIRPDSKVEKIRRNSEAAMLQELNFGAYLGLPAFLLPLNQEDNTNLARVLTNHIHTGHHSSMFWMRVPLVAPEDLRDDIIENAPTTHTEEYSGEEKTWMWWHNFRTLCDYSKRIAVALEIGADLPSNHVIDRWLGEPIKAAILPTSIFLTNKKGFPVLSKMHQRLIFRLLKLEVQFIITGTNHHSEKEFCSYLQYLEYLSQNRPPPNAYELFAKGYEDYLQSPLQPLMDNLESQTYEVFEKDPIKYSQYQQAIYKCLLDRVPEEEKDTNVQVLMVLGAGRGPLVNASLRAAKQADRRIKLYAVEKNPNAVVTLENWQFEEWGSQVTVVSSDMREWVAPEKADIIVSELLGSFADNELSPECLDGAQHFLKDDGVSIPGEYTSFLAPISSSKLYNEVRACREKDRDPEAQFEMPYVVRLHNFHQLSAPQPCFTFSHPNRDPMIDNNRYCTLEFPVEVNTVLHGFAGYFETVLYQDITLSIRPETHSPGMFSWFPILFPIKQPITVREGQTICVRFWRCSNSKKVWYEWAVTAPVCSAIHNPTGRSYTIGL
PRMT5/MEP50, sequence (Q9BQA1 other isoform, or with tags, fused parts or gaps partner): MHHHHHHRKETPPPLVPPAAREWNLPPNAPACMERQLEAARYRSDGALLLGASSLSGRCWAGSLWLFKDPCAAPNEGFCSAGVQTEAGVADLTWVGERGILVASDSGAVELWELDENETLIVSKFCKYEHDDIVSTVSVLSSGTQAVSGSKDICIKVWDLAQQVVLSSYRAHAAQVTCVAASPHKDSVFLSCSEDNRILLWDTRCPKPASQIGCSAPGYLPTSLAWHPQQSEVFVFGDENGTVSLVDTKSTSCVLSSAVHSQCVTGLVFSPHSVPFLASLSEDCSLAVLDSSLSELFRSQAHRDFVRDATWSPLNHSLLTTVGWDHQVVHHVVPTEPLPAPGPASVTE

| Compound | IC50 (PRMT5/MEP50; PRMT5 biochemical assay) | EC50 ([1]; In Cell Western methylation) | EC50 (Z-138 cell line; [2]) | IC50 (PRMT5/MEP50) | EC50 [1] | EC50 (Z-138 cell line; 120 h, Z-138 cells, 5 days) | EC50 (Z-138 cell line; Z-138, 120 h) |
| --- | --- | --- | --- | --- | --- | --- | --- |
| O=C(NC[C@H](O)CN1CCc2ccccc2C1)c1cc(NC2COC2)nc(N2CCCCC2)n1 [Compound 414] | < 100 nM | < 100 nM | < 100 nM |  |  |  |  |
| CN1CCC(Nc2cc(C(=O)NCC(C)(O)CN3CCc4ccccc4C3)ncn2)CC1 (stereo not drawn) [Compound 648] | 1000 to 10000 nM | > 1000 nM | > 5000 nM |  |  |  |  |
| CCC(=O)N1CCC(Nc2cc(C(=O)NC[C@H](O)CN3CCc4ccccc4C3)ncn2)CC1 [Compound 406] | < 100 nM | < 100 nM | < 100 nM |  |  |  |  |
| O=C(NC[C@H](O)CN1CCc2ccccc2C1)c1ccnc(Nc2ccccn2)c1 [Compound 382] |  |  |  | < 100 nM | < 100 nM | 101 to 1000 nM |  |
| Cn1ccc(Nc2cc(C(=O)NC[C@H](O)CN3CCc4ccccc4C3)ccn2)n1 [Compound 342] |  |  |  | < 100 nM | < 100 nM | 1000 to 10000 nM |  |
| CN(C)[C@H]1CC[C@@H](Nc2cc(C(=O)NC[C@H](O)CN3CCc4ccccc4C3)ncn2)CC1 [Compound 589] | < 100 nM | 101 to 1000 nM | 1000 to 10000 nM |  |  |  |  |
| CC(=O)N1CC(Nc2cc(C(=O)NC[C@H](O)CN3CCc4ccccc4C3)nc(C)n2)C1 [Compound 450] | < 100 nM | < 100 nM | 101 to 1000 nM |  |  |  |  |
| CC(=O)N1CCC(Nc2cc(C(=O)NCCCN3CCc4ccccc4C3)ncn2)CC1 [Compound 653] | < 100 nM | < 100 nM | 1000 to 10000 nM |  |  |  |  |
| CC(C)(C)C(=O)N1CCC(Nc2cc(C(=O)NC[C@H](O)CN3CCc4ccccc4C3)ccn2)CC1 [Compound 470] | < 100 nM | < 100 nM | < 100 nM |  |  |  |  |
| CC(=O)N1CCC(Nc2cc(C(=O)NC[C@H](O)CN3CCc4ccccc4C3C)ncn2)CC1 (stereo partly drawn) [Compound 584] | < 100 nM | < 100 nM | 1000 to 10000 nM |  |  |  |  |
| CC(=O)[C@H]1CC[C@H](Nc2cc(C(=O)NC[C@H](O)CN3CCc4ccccc4C3)ncn2)CC1 [Compound 600] | < 100 nM | < 100 nM | 1000 to 10000 nM |  |  |  |  |
| O=C(NC[C@H](O)CN1CCc2ccccc2C1)c1cnnc(NC2COC2)c1 [Compound 545] | < 100 nM | < 100 nM | 1000 to 10000 nM |  |  |  |  |
| CCSCCN1CCC(Nc2cc(C(=O)NC[C@H](O)CN3CCc4ccccc4C3)ncn2)CC1 [Compound 570] | < 100 nM | < 100 nM |  |  |  |  | 1000 to 10000 nM |
| O=C(NC[C@H](O)CN1CCc2ccccc2C1)c1cc(N[C@H]2C[C@H](O)C2)ncn1 [Compound 521] | < 100 nM | < 100 nM | 101 to 1000 nM |  |  |  |  |
| CNC(=O)[C@H]1CC[C@H](Nc2cc(C(=O)NC[C@H](O)CN3CCc4ccccc4C3)ncn2)CC1 [Compound 602] | < 100 nM | < 100 nM | 101 to 1000 nM |  |  |  |  |
| CC(=O)N1CCC(Nc2cc(C(=O)NC[C@H](O)CN3CCc4cccc(C)c4C3)ccn2)CC1 [Compound 665] | < 100 nM | < 100 nM | < 100 nM |  |  |  |  |
| CC(=O)Nc1cccc(C(=O)NCC(O)CN2CCc3ccccc3C2)c1 (stereo not drawn) [Compound 26] |  |  |  | 101 to 1000 nM | 101 to 1000 nM | 10000 to 50000 nM |  |

| Compound | IC50 (PRMT5/MEP50; PRMT5 biochemical assay) | EC50 ([1]; In Cell Western methylation) | EC50 (Z-138 cell line; [2]) | IC50 (PRMT5/MEP50) | EC50 [1] | EC50 (Z-138 cell line; 120 h, Z-138 cells, 5 days) | EC50 (Z-138 cell line; Z-138, 120 h) |
| --- | --- | --- | --- | --- | --- | --- | --- |
| CC(=O)N1CCC(Nc2cc(C(=O)NC[C@H](O)CN3CCc4ccccc4C3C)ccn2)CC1 (stereo partly drawn) [Compound 694] | < 100 nM | < 100 nM | 101 to 1000 nM |  |  |  |  |
| CCN(C)CCOc1ccc(C(=O)NC[C@H](O)CN2CCc3ccccc3C2)cc1 [Compound 385] |  |  |  | < 100 nM | < 100 nM | 1000 to 10000 nM |  |
| CC(C)(O)CN1CCC(Nc2cc(C(=O)NC[C@H](O)CN3CCc4ccccc4C3)ncn2)CC1 [Compound 579] | < 100 nM | < 100 nM | 101 to 1000 nM |  |  |  |  |
| CC(C)N1CCN(c2nc(NC3COC3)cc(C(=O)NC[C@H](O)CN3CCc4ccccc4C3)n2)CC1 [Compound 478] | < 100 nM | < 100 nM | < 100 nM |  |  |  |  |
| CN1CCC(Oc2cc(C(=O)NC[C@H](O)CN3CCc4ccccc4C3)cnn2)CC1 [Compound 620] | < 100 nM | 101 to 1000 nM | 10000 to 50000 nM |  |  |  |  |
| O=C(NC[C@H](O)CN1CCc2ccccc2C1)c1cc(NC2COC2)nc(C(F)(F)F)n1 [Compound 405] | < 100 nM | < 100 nM | 101 to 1000 nM |  |  |  |  |
| CCCC(=O)N1CC(Nc2cc(C(=O)NC[C@H](O)CN3CCc4ccccc4C3)ccn2)C1 [Compound 503] | < 100 nM | < 100 nM | < 100 nM |  |  |  |  |
| C[C@@H](N1CC(Nc2cc(C(=O)NC[C@H](O)CN3CCc4ccccc4C3)ncn2)C1)C(F)(F)F [Compound 446] | < 100 nM | < 100 nM | 1000 to 10000 nM |  |  |  |  |
| CN(C[C@H](O)CN1CCc2ccccc2C1)C(=O)c1ccnc(NC2CCOCC2)c1 [Compound 357] |  |  |  | 101 to 1000 nM | < 100 nM | 1000 to 10000 nM |  |
| Cc1cnc(NC2CN(C)C2)cc1C(=O)NC[C@H](O)CN1CCc2ccccc2C1 [Compound 403] | < 100 nM | > 1000 nM | > 20000 nM |  |  |  |  |
| O=C(NC[C@H](O)CN1CCc2ccccc2C1)c1cc(NC2CCN(C(=O)C3CCC3)CC2)ccn1 [Compound 566] | < 100 nM | < 100 nM | < 100 nM |  |  |  |  |
| CC(=O)N1CCC(Nc2cc(C(=O)NC[C@H](O)CN3CCc4cc(C)ccc4C3)ccn2)CC1 [Compound 682] | < 100 nM | < 100 nM | 101 to 1000 nM |  |  |  |  |
| O=C(NC[C@H](O)CN1CCc2ccccc2C1)c1cc(N[C@H]2C[C@@H](O)C2)ncn1 [Compound 491] | < 100 nM | < 100 nM | 101 to 1000 nM |  |  |  |  |
| CC(=O)N1CC(Nc2cc(C(=O)NC[C@H](O)CN3CCc4ccccc4C3)nc(C(C)C)n2)C1 [Compound 457] | < 100 nM | < 100 nM | < 100 nM |  |  |  |  |
| NC(=O)c1cccc(C(=O)NCC(O)CN2CCc3ccccc3C2)c1 (stereo not drawn) [Compound 25] |  |  |  | 101 to 1000 nM | 1000 to 10000 nM | > 20000 nM |  |
| O=C(NC[C@H](O)CN1CCc2ccccc2C1)c1cc(OC2CNC2)ncn1 [Compound 439] | < 100 nM | 101 to 1000 nM | 10000 to 50000 nM |  |  |  |  |
| CC(=O)N1CC(Nc2cc(C(=O)NC[C@H](O)CN3CCc4ccccc4C3)nc(N3CCN(C)CC3)n2)C1 [Compound 442] | < 100 nM | < 100 nM | 101 to 1000 nM |  |  |  |  |
